According to US20250034168A1, “NITROGEN-CONTAINING HETEROCYCLIC DERIVATIVE PARP INHIBITOR AND USE THEREOF” (XIZANG HAISCO PHARMACEUTICAL CO., LTD., priority 2021, published 2025):
pIC50: −log10 of the molar value.

Experiments:
[1] = system: MDA-MB-436 subcutaneous transplanted tumor; assay: Mouse MDA-MB-436 subcutaneous in vivo transplanted tumor model; design: species or system BALB/c nude mice
Experimental: Human breast cancer MDA-MB-436 cells were placed in Leibovitz's L-15 medium (supplemented with 10 μg/mL insulin, 16 μg/mL glutathione, 10% fetal bovine serum and 1% double antibody) and cultured at 37° C. Conventional digestion treatment with trypsin was carried out twice a week for passage. When the cell saturation was 80%-90%, and the number reached the requirement, the cells were collected, counted, and inoculated. BALB/c nude mice (from Beijing Vital River Laboratory Animal Technology Co., Ltd.) were subcutaneously inoculated with 0.2 mL (10×10^6) of MDA-MB-436 cells (plus matrigel, with the volume ratio of 1:1) on the right back. When the average tumor volume reached about 180 mm^3, grouping and administration were performed (marked as Day 0). The solvent group was given 5% DMSO, 30% PEG400 and 65% of 20% sulfobutyl-β-cyclodextrin solution, and the administration group was given compound 14 (Day 0-Day 10:1 mg/kg; Day 11-Day 28:0.1 mg/kg). The administration frequency was once a day, the administration cycle was 29 days, and the drug withdrawal observation period was set to 14 days. After grouping, the tumor diameter was measured twice a week with a vernier caliper. The formula for calculating the tumor volume was: V=0.5×a×b^2, where a and b represented the long and short diameters of the tumor, respectively. The tumor inhibitory effect of compound 14 was evaluated by TGI (%)=[(1−(average tumor volume at the end of administration in the treatment group−average tumor volume at the beginning of administration in the treatment group))/(average tumor volume at the end of treatment in the solvent control group−average tumor volume at the beginning of treatment in the solvent control group)]×100%. The tumor growth curve and the animal body weight change curve were as shown in FIG. 1 and FIG. 2, respectively.

[2] = target: PARP-1 enzyme (Homo sapiens (Human), UniProt P09874); assay: PARP-1 enzyme activity test; assay type: biochemical
Sequence of PARP-1 enzyme (P09874 whole entry): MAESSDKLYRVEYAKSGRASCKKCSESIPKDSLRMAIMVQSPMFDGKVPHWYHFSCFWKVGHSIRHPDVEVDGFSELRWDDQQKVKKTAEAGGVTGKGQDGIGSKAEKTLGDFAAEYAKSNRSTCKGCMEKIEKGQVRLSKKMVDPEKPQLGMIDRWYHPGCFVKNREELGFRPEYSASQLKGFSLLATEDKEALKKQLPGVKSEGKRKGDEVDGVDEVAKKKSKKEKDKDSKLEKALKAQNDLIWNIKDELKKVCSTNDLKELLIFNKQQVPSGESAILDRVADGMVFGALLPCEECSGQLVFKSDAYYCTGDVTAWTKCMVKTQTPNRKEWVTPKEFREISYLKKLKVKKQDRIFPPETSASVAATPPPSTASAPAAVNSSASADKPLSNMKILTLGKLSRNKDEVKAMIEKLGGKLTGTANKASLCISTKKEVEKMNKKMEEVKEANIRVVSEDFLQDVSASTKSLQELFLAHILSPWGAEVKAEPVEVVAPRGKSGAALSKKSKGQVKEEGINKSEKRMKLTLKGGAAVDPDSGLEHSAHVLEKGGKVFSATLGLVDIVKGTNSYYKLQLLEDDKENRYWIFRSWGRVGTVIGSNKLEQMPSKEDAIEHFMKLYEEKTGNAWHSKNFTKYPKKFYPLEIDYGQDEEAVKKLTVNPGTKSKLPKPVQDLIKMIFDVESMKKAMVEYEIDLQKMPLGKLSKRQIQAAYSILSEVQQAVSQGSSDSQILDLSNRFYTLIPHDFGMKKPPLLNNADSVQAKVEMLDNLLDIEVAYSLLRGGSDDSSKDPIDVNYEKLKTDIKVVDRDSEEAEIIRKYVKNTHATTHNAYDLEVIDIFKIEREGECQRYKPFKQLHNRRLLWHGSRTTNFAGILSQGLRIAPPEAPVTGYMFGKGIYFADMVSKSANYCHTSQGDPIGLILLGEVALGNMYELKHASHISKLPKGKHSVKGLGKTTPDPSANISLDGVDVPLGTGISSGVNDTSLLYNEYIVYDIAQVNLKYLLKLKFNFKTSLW
Experimental: PARP-1 chemical […] detection kit was purchased from BPS Bioscience. The histone solution in the kit was diluted 5× with 1×PBS, and 25 μL of the diluted histone solution was added to a microwell plate and incubated overnight at 4° C. After the incubation, the plate was washed three times with PBST (0.05% Tween-20). 100 μL of the blocking solution was added to the microwell plate and incubated at 25° C. for 90 minutes. After the incubation, the plate was washed three times with PBST. 2.5 μL of compounds at different concentrations diluted in test buffer and 12.5 μL of substrate mixed solution (1.25 μL 10×PARP test buffer; 1.25 μL 10×PARP test mixed solution; 2.5 μL Activated DNA, 7.5 μL double-distilled water) were added to the microwell plate. The PARP-1 enzyme was diluted to 2 ng/μL, 10 μL of the diluent was added to the microwell plate, and the reaction system was incubated at 25° C. for 60 minutes.
(§1) After the incubation, the plate was washed three times with PBST. Streptavidin-HRP was diluted 50× with a blocking solution, and 25 μL of the diluent was added to the microwell plate and incubated at 25° C. for 30 minutes. After the incubation, the plate was washed three times with PBST. ELISA ECL substrate A and substrate B were mixed at a ratio of 1:1 (v/v), 50 μL of the mixture was added to the microwell plate, and the chemiluminescence value was read.
The inhibition rate was calculated according to formula 1, where RLUsample was the readout of the compound well, RLUmax was the readout of the solvent control well, and RLUmin was the readout of the control well without the PARP-1 enzyme. Curve fitting was performed by four parameters (log(inhibitor) vs. response—Variable slope) using GraphPad Prism software, and the IC50 value was calculated.

[3] = system: MDA-MB-231 cells; assay: MDA-MB-231 cell proliferation inhibition test; assay type: cell-based; conditions: Homo sapiens
Experimental: Human breast cancer MDA-MB-231 cells purchased from ATCC were placed in complete DMEM medium (supplemented with 10% fetal bovine serum and 1% double antibody) and cultured at 37° C. and 5% CO2. The cells in the exponential growth phase were collected, and the cell suspension was adjusted to 1500 cells/135 μL with the culture medium. 135 μL of the cell suspension was added to each well of a 96-well cell culture plate and incubated overnight. On day 2, compounds at different concentrations were added, and the plate was placed in the incubator and incubated for 7 days. After the incubation was completed, according to operation instructions for a CellTiter-Glo kit (Promega, Cat #G7573), 75 μL of CTG solution, which was already pre-melted and equilibrated to room temperature, was added to each well, and the mixture was uniformly mixed for 2 min using a microplate shaker. The plate was placed at room temperature for 10 min, and then […] signal values were measured using an Envision 2104 plate reader (PerkinElmer). The cell proliferation inhibition rate was calculated according to the formula [(1−(RLUcompound−RLUblank)/(RLUcontrol−RLUblank))×100%]. The IC50 value was obtained by four-parameter nonlinear fitting using GraphPad Prism software.

[4] = target: PARP2 (Homo sapiens (Human), UniProt Q9UGN5); assay: PARP2 enzyme activity test; assay type: biochemical
Sequence of PARP2 (Q9UGN5 whole entry): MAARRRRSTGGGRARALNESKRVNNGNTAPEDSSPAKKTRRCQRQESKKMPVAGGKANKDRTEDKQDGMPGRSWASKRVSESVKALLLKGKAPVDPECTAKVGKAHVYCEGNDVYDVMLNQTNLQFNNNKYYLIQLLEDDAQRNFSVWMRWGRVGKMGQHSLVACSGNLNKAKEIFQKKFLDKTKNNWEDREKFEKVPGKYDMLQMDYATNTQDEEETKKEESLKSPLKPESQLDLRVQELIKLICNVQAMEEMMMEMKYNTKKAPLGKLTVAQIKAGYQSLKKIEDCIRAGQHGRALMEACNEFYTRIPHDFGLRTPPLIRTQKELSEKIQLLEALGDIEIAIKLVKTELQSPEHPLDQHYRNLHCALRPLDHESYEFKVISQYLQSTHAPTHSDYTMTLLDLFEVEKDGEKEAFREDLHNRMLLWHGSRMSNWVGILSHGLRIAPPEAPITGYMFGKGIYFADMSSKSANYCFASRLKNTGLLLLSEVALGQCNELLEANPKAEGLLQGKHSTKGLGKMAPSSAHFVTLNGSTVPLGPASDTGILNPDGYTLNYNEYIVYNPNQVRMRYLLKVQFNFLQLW
Experimental: PARP2 and PARP7 chemical […] detection kits were both purchased from BPS Bioscience. The histone solution in the kit was diluted 5× with 1×PBS, and 25 μL of the diluted histone solution was added to a microwell plate and incubated overnight at 4° C. After the incubation, the plate was washed three times with PBST (0.05% Tween-20). 100 μL of the blocking solution was added to the microwell plate and incubated at 25° C. for 90 minutes. After the incubation, the plate was washed three times with PBST. 2.5 μL of compound 4 diluted in test buffer and 5 μL of substrate mixed solution were added to the microwell plate. 5 μL of the diluted PARP enzyme was added to the microwell plate, and the reaction system was incubated at 25° C. for 60 minutes.
as §1, with “(v/v), 25” for “(v/v), 50”, “read. […]” for “read.”

**Q.** What does the source list for `CCc1cc2ncc(CN3CC=C(c4ccc(C(=O)NC)nc4)CC3)cc2[nH]c1=O` [Compound 14, 1′-((7-ethyl-6-oxo-5,6-dihydro-1,5-naphthyridin-3-yl)methyl)-N-methyl-1′,2′,3′,6′-tetrahydro-[3,4′-bipyridine]-6-carboxamide]?
**A.** body weight of the animals ([1]; Day 0-Day 10: 1 mg/kg, Day 11-Day 28: 0.1 mg/kg, once a day): no significant decrease; TGI ([1]; after 28 days of administration, Day 0-Day 10: 1 mg/kg, Day 11-Day 28: 0.1 mg/kg, once a day): 121%; tumor growth after drug withdrawal ([1]; drug withdrawal observation period 14 days): did not grow again; pIC50 [2]: 9.23; pIC50 ([3]; MDA-MB-231, 168 h, BRCA WT cells, 7 days incubation, CellTiter-Glo, read-out: MDA-MB-231 cell inhibitory activity IC50): 4.66; inhibition at 10 µM ([3]; MDA-MB-231 cells, 10 μM, read-out: Max inh. % 10 μM): 59.2%; pIC50 [4]: 7.51
